Measured values: patent US8410116B2, “Bis(styryl)pyrimidine or bis(styryl)benzene compounds, pharmaceutically acceptable salts thereof, preparation method thereof, and pharmaceutical composition for prevention or treatment of diseases featuring amyloids comprising the same as an active ingredient” (Korea Institute of Science and Technology, priority 2009, dated 2013)

Tests used:
[1] = system: double transgenic mice with mutations in both APP and presenilin 1; test: Context fear conditioning in transgenic mice; format: in vivo
Method: (§1) Double transgenic mice with mutations in both APP and presenilin 1 were used for the tests. The double transgenic mice, each weighing 26-39 g, were eight months old. They were divided into groups of 10 and administered for 2 to 3 months with the compound of Example 1 through food pellets (3 mg/pellet) before conducting the behavior tests.
A memory test was performed in context fear conditioning. Five trials of tone-shock pairing of CS-US (conditioned stimulus-unconditioned stimulus) were given to mice. On the next day, the mice were left in the stimulated context under no stimulus conditions and observed for freezing. […] During the test, there was no difference in average body weight between the two groups.

[2] = system: HT-22 cells incubated with beta amyloid (Aβ25-35); test: Alleviating effect on beta amyloid toxicity in HT-22 cells (MTT); format: cell-based, murine; conditions: Mus musculus, compound pre-incubated 1 hr, then 25 μM beta amyloid (Aβ25-35) for 18 hrs, Aβ25-35 line = toxin alone, read-out: Cell Survival (%)
Method: (§2) The murine hippocampal neuronal cell line HT-22 was incubated at 37° C. in DMEM (Dulbecco's Modified Eagle's Medium) supplemented with 10% FBS (fetal bovine serum) and 1% penicillin/streptomycin in a 5% CO2 incubator. Before testing, HT-22 cells were seeded at a density of 5×10^3 cells/well onto 96-well plates containing serum-free DMEM and incubated for 1 hr. Afterwards, each of the compounds of Examples 1 to 27 was added at a concentration of 25 μM to each well before incubation for 18 hrs. 5 mg/ml MTT (3-(4,5-dimethyl-2-thiozolyl)-2,5-diphenyl-2H-tetrazolium bromide) solution was added in an amount of 15 μl per well and incubated for 4 hrs. A solubilization solution (10% SDS, 50% dimethylformamide, pH 4.7) was added in an amount of 100 μl to each well, followed by incubation for 18 hrs. Absorbance at 570 nm/630 nm was read on a microplate reader.
The following experiment was performed in order to examine the ability of the compounds of the Examples in accordance with the present invention to alleviate beta amyloid toxicity. HT-22 cells were cultured and incubated with the compounds of Examples 1 to 27 for 1 hr in the same manner as in Example 2. Cell necrosis was induced by beta amyloid toxicity. For this, the cells were incubated with 25 μM of beta amyloid (Aβ25-35) for 18 hrs. Subsequently, a 5 mg/ml MTT solution was added in an amount of 15 μl to each well, followed by incubation for 4 hrs. Then, the cells were again incubated for 18 hrs with 100 μl/well of the solubilization solution. Absorbance at 570 nm/630 nm was read on a microplate reader.

neurons = test: Neuronal cell count in cerebra of transgenic mice; format: in vivo; conditions: 11 months old transgenic mice, versus control
Method: (§3) In order to examine whether this effect resulted from inhibitory activity against the deposition of beta amyloid or from a decrease in the level of beta amyloid, the cerebra of the transgenic mice were immunohistochemically analyzed. In this regard, after being removed from the transgenic mice which were 11 months old upon completion of the behavior test, the right cerebral hemispheres were measured for amyloid plaque levels in the cerebral cortex and hippocampus using an immunostaining or ELISA (Enzyme-linked immunosorbent assay) method.
(§4) Amyloid plaques were stained with Congo red and counted. […] FIG. 4D gives neuronal cell count data, showing a larger crowd in the group treated with the compound of Example 1.

HT-22 cells = test: Cytotoxicity in HT-22 cell (MTT); format: cell-based, murine; conditions: compound 25 μM, 18 hrs
Method: The following experiment was performed with HT-22 cells in order to examine the cytotoxicity of the compounds of the Examples in accordance with the present invention.
as §2

beta amyloid (1-40) = test: ELISA for beta amyloid (1-40) in cerebra of transgenic mice; format: in vivo; conditions: 11 months old transgenic mice, versus control
Method: as §3, §4

[3] = system: double transgenic mice with mutations in both APP and presenilin 1; test: Y-maze task and cognitive performance tests in transgenic mice; format: in vivo; conditions: food pellets (3 mg/pellet) for 2 months, 10 month old transgenic mice
Method: as §1
After administration of the compound of Example 1 for 2 months (for 10 month old mice), the mice were tested for learning and memory through the Y-maze task and cognitive performance tests.

[4] = system: beta amyloid (1-42) injected mice; test: Behavior tests with acute AD model taken together (Y-maze, cognitive performance, passive avoidance); format: in vivo; conditions: for Memory and learning of beta amyloid (1-42) injected mice (in words): data of Table 6, with statistical significance
Method: (§5) Mice 4-5 weeks old, each weighing 20˜25 g, were divided into groups of six. Intracerebroventricular injection was performed with a 50 μl Hamilton microsyringe fitted with a disposable 26-gauge needle as described by Laursen and Belknap (Laursen & Belknap, J. Pharmacol. Methods. 1986, 16, 355). It was inserted 2.4 mm deep into the bregma. All samples were administered to groups of 10 via oral routes or food pellets. After the intracerebroventricular injection, the compounds of the present invention were administered for 2 days to the mice which were then subjected to the Y-maze test on Day 2, the cognition test on Days 2 and 3, the passive avoidance test on Days 3 and 4, and the water maze test on Days 3 to 7. All data were averages of 6 measurements (mice).
(§6) Short-term memory was assessed by spontaneous alternation behavior in the Y-maze task. Spontaneous alternation behavior is considered to reflect spatial working memory, which is a form of short-term memory. A mouse was placed in one arm of a Y-maze and allowed to freely pass the three arms for 8 min. Spontaneous alternation behavior was defined as successive entries into the three arms. Percentage spontaneous alternation was calculated as the ratio of actual to possible alternations […], multiplied by 100.
(§7) For the cognitive performance task, two identical substances were respectively placed 5 cm apart from two corners and the time it took for a mouse to investigate the given and new substances was measured. Investigation was defined as the condition in which a mouse sniffed with the head directing toward the substance within a diameter of 2 cm or touched the substance.
(§8) A passive avoidance test was performed as described in the literature (Song et al. J. Neurochem., 1998, 71, 875). Used was a passive avoidance box which was divided into two compartments: a lighted one and a dark one, separated by an automatic guillotine door. For training, mice were placed in the lighted compartment and electrically shocked with 0.25 mA for 1 sec whenever they entered the darkened compartment. 24 hours after training, the mice were placed in the lighted compartment and measured for latency time before entering the darkened compartment.

beta amyloid (1-42) [5] = target: beta amyloid (1-42) (Homo sapiens, UniProt P05067); test: Inhibitory activity against beta amyloid fibril formation (ThT fluorescence); format: biochemical; conditions: for remaining activity at 10 µM: compound 10 μM, beta amyloid (1-42) 25 μM, 1 hr room temperature, beta amyloid alone (control) = 100
Chain of beta amyloid (1-42) (Homo sapiens, UniProt P05067) (P05067 672-713 limits assumed): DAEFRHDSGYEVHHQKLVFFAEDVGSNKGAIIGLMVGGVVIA
Method: The compounds of the present invention were assayed for inhibitory activity against the formation of beta amyloid fibrils as a function of ThT fluorescence intensity as follows. Beta amyloid (1-42) and each of the compounds of Examples 1 to 27 were dissolved in DMSO and diluted with PBS (phosphate-buffered saline, pH 7.4). The final concentrations of beta amyloid (1-42) (control) and each of the compounds of Examples 1 to 27 were set at 25 μM and 10 μM, respectively. The dilutions were incubated at room temperature for 1 hr before a solution of thioflavin T (ThT, 5 μM, pH 8.5) in glycin-NaOH buffer was added thereto. Fluorescence was measured at 450 nm for excitation (slit 10 nm) and […] for emission (slit 10 nm) on 96-well microplates using a multilabel fluorescence counter.

beta amyloid (1-42) [6] = test: ELISA for beta amyloid (1-42) in cerebra of transgenic mice; format: in vivo; conditions: 11 months old transgenic mice, versus control
Method: as §3, §4

amyloid plaques = test: Amyloid plaque counts (Congo red) in cerebra of transgenic mice; format: in vivo; conditions: cerebral cortex and hippocampus, 11 months old transgenic mice, versus control
Method: as §3, §4

[7] = system: beta amyloid (1-42) injected mice; test: Cognitive performance task, acute Alzheimer's disease model; format: in vivo; design: Cognition % of control: concentration or dose not given beside the values; conditions: for Cognition Preference (investigation time for new matter/total investigation time): mice i.c.v. injected with beta amyloid (1-42), test on Days 2 and 3; for Cognition % of control: preference relative to control mice
Method: as §5, §7

[8] = system: beta amyloid (1-42) injected mice; test: Passive avoidance test, acute Alzheimer's disease model; format: in vivo; design: Passive Avoidance % of control: concentration or dose not given beside the values; conditions: for Passive Avoidance % of control: latency relative to control mice; for Passive Avoidance Latency: mice i.c.v. injected with beta amyloid (1-42), test on Days 3 and 4, 24 hours after training
Method: as §5, §8

[9] = system: beta amyloid (1-42) injected mice; test: Water maze test, acute Alzheimer's disease model; format: in vivo; conditions: mice injected with beta amyloid (1-42), Days 3 to 7
Method: as §5
In a water maze test, a mouse, when released from a randomly selected quadrant on each trial, was allowed to swim around the pool in search of an exit while the time taken to reach the platform (latency) was recorded.

[10] = system: beta amyloid (1-42) injected mice; test: Y-maze task, acute Alzheimer's disease model; format: in vivo; conditions: mice i.c.v. injected with beta amyloid (1-42), compounds administered for 2 days, test on Day 2
Method: as §5, §6

[11] = compared to beta amyloid (1-42) injected mice, % of control

Compound	viability at 25 µM [2] [%]	Cell Survival (%) (HT-22 cells)	Memory and learning of beta amyloid (1-42) injected mice (in words) [4]	remaining activity at 10 µM (beta amyloid (1-42) [5]) [%]	Cognition Preference (investigation time for new matter/total investigation time) [7]	Cognition % of control [7] [%]	Passive Avoidance % of control [8] [%]	Passive Avoidance Latency [8] [s]	Spatial learning ability in water maze (latency over sessions), FIG. 1 [9]	Y-Maze Spontaneous Alternation (%) [10] [%]	also measured
COc1ccc(/C=C/c2cc(/C=C/c3ccc(OC)c(O)c3)ncn2)cc1O [Ex. 1, (E,E)-4,6-Bis(3′-hydroxy-4′-methoxystyryl)pyrimidine]	91.8 ± 8.8	135.6 ± 6.1	increased memory	19.1 ± 0.6	0.59 ± 0.03	92	80.9	144.2	recover spatial learning ability	72.2	Average body weight ([1]; transgenic mice during the test, treated versus control group): no difference; Freezing in context fear conditioning, FIG. 3C ([1]; transgenic mice, compared to control): longer time freezing; Neuronal cell count, FIG. 4D (neurons): larger crowd; Level of beta amyloid (1-40), ELISA, FIG. 4B (beta amyloid (1-40)): decreasing pattern; Learning and memory in Y-maze and cognitive performance, FIGS. 3A and 3B [3]: memory impairment was alleviated; Learning and memory improvement, dose dependence, FIG. 2 ([4]; 50, 100, 200 mg/kg p.o., Y-maze, cognitive performance, passive avoidance): dose-dependent manner; Level of beta amyloid (1-42), ELISA, FIG. 4C (beta amyloid (1-42) [6]): decreasing pattern; Counts of amyloid plaques stained with Congo red, FIG. 4A (amyloid plaques): smaller; Improvement in passive avoidance performance [8, 11]: highest improvement
CN(C)c1cc(/C=C/c2cc(/C=C/c3ccc(O)c(N(C)C)c3)ncn2)ccc1O [Ex. 2, (E,E)-4,6-Bis[4′-hydroxy-3′-(N,N-dimethylamino)styryl]pyrimidine]	85.3 ± 0.1	146.2 ± 26.6	increased memory	16.5 ± 2.6	0.53 ± 0.05	82	66.1	117.8	recover spatial learning ability	71.3	
COc1cc(/C=C/c2cc(/C=C/c3ccc(O)c(OC)c3)ncn2)ccc1O [Ex. 6, (E,E)-4,6-bis(4′-hydroxy-3′-methoxystyryl)pyrimidine]	103 ± 13	215.6 ± 3.5	increased memory	20.7 ± 5.4	0.61 ± 0.03	95	78.1	139.2	recover spatial learning ability	67.9	Recovery of preference for the new matter [7, 11]: about 11%
CN(C)c1ccc(/C=C/c2cc(/C=C/c3ccc(N(C)C)c(O)c3)ncn2)cc1O [Ex. 7, (E,E)-4,6-bis[3′-hydroxy-4′-(N,N-dimethylamino)styryl]pyrimidine]	76.6 ± 12.1	132.8 ± 41.1	increased memory	6.3 ± 1.8	0.57 ± 0.02	89	68.7	122.5	recover spatial learning ability	67.0	Inhibitory activity against fibril formation (in words) (beta amyloid (1-42) [5]; Table 3): remarkable inhibitory activity
Aβ1-42: beta amyloid peptide of 42 amino acids, injected intracerebroventricularly into mice to induce acute Alzheimer's disease [reference compound]					0.54 ± 0.02	84	50.4	89.9	deficient in spatial memory	61.6	Reduction of preference for the new matter compared to the control ([7]; beta amyloid (1-42) injected mice): about 16%; Passive Avoidance % of control ([8]; listed as beta amyloid (1-42)): about 50%
